The source made the active and inactive calls. How the calls were made is not given here. A value given as a limit tells only on which side of the number the result lay.

The IC50 is the midpoint of a concentration-inhibition curve.

Serine/threonine-protein kinase PLK1 (Homo sapiens), sequence (P53350 whole entry, looked up, the tested form may be a part): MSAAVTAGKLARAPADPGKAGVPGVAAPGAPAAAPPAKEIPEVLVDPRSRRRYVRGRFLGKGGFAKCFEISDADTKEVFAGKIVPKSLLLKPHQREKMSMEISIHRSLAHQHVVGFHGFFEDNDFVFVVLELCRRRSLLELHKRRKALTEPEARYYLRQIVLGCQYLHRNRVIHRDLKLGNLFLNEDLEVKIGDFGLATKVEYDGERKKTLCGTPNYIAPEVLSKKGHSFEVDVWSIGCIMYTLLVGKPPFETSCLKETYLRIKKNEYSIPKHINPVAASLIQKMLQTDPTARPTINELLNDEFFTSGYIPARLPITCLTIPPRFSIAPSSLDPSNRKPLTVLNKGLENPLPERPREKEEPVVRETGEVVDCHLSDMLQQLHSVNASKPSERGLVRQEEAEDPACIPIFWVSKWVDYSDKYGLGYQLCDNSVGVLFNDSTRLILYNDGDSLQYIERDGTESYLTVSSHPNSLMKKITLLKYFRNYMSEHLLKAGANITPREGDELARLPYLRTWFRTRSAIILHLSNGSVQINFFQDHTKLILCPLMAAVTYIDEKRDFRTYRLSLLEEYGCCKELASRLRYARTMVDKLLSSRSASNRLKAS

This test has as its target Serine/threonine-protein kinase PLK1 (Homo sapiens) (UniProt P53350). The test can be described thus: PLK1 polo-box domain peptide-binding inhibitors, SAR follow-up, biochemical, fluorescence polarization, synthesized analogs, concentration response (AID 1057). Particulars: Plk1 PBD fluorescence polarization peptide binding. Background: Fluorescence polarisation rises when a labelled molecule tumbles more slowly, as on binding a larger partner.
Consider `CCOC(=O)CCCCCNC(=O)c1c(O)[nH]c(=O)[nH]c1=O`, for which the IC50 is > 50 µM (inactive).

For `C/C(=N\NC(=O)c1ccncc1)c1c(O)[nH]c(=O)[nH]c1=O`, the IC50 was > 50 µM (inactive).

In the case of `Cc1cccc(N/N=C/c2c(O)[nH]c(=S)[nH]c2=O)c1`, the IC50 is > 50 µM (inactive).

The values above are taken from PubChem BioAssay AID1057 (University of Pittsburgh Molecular Library Screening Center, 2008).
